Laboratory results reported in PubChem BioAssay (NCI).
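Assay format: 96-well plates, 48-hour exposure. GI50 marks 50% less growth. TGI denotes the concentration required for complete inhibition of growth.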

Assays:
Assay in all cases: DTP human tumour cell line panel, 48 h
786-0 renal = system: 786-0 renal
A498 renal = system: A498 renal
A549 NSCLC = system: A549 NSCLC
ACHN renal = system: ACHN renal
BT-549 breast = system: BT-549 breast
CAKI-1 renal = system: CAKI-1 renal
CCRF-CEM leukemia = system: CCRF-CEM leukemia
COLO 205 colon = system: COLO 205 colon
DU-145 prostate = system: DU-145 prostate
EKVX NSCLC = system: EKVX NSCLC
HCC-2998 colon = system: HCC-2998 colon
HCT-116 colon = system: HCT-116 colon
HCT-15 colon = system: HCT-15 colon
HL-60(TB) leukemia = system: HL-60(TB) leukemia
HOP-62 NSCLC = system: HOP-62 NSCLC
HOP-92 NSCLC = system: HOP-92 NSCLC
HS 578T breast = system: HS 578T breast
HT29 colon = system: HT29 colon
IGROV1 ovarian = system: IGROV1 ovarian
K-562 leukemia = system: K-562 leukemia
KM12 colon = system: KM12 colon
LOX IMVI melanoma = system: LOX IMVI melanoma
M14 melanoma = system: M14 melanoma
MALME-3M melanoma = system: MALME-3M melanoma
MCF7 breast = system: MCF7 breast
MDA-MB-231 breast = system: MDA-MB-231 breast
MDA-MB-435 = system: MDA-MB-435
MOLT-4 leukemia = system: MOLT-4 leukemia
NCI-H226 lung = system: NCI-H226 lung
NCI-H23 lung = system: NCI-H23 lung
NCI-H460 lung = system: NCI-H460 lung
NCI-H522 lung = system: NCI-H522 lung
NCI/ADR-RES ovarian = system: NCI/ADR-RES ovarian
OVCAR-3 ovarian = system: OVCAR-3 ovarian
OVCAR-4 ovarian = system: OVCAR-4 ovarian
OVCAR-5 ovarian = system: OVCAR-5 ovarian
OVCAR-8 ovarian = system: OVCAR-8 ovarian
PC-3 prostate = system: PC-3 prostate
RPMI-8226 leukemia = system: RPMI-8226 leukemia
RXF 393 renal = system: RXF 393 renal
SF-268 CNS = system: SF-268 CNS
SF-295 CNS = system: SF-295 CNS
SF-539 CNS = system: SF-539 CNS
SK-MEL-2 melanoma = system: SK-MEL-2 melanoma
SK-MEL-28 melanoma = system: SK-MEL-28 melanoma
SK-MEL-5 melanoma = system: SK-MEL-5 melanoma
SK-OV-3 ovarian = system: SK-OV-3 ovarian
SN12C renal = system: SN12C renal
SNB-19 CNS = system: SNB-19 CNS
SNB-75 CNS = system: SNB-75 CNS
SR leukemia = system: SR leukemia
SW-620 colon = system: SW-620 colon
T-47D breast = system: T-47D breast
TK-10 renal = system: TK-10 renal
U251 CNS = system: U251 CNS
UACC-257 melanoma = system: UACC-257 melanoma
UACC-62 melanoma = system: UACC-62 melanoma
UO-31 renal = system: UO-31 renal

`COc1cccc2c1C(=N)c1c(O)c3c(c(O)c1C2=O)C[C@@](O)(C(C)=O)C[C@@H]3O[C@H]1C[C@H](N)[C@H](O)[C@H](C)O1` showed a GI50 (786-0 renal) of 254 nM, a TGI (786-0 renal) of 4280 nM and a GI50 (A498 renal) of 1500 nM. It also gave a TGI (A498 renal) of 5860 nM, a GI50 (A549 NSCLC) of 155 nM and a TGI (A549 NSCLC) of 1580 nM. The GI50 (ACHN renal) was 419 nM, the TGI (ACHN renal) was 3100 nM and the GI50 (BT-549 breast) was 813 nM. For the same compound, the TGI (BT-549 breast) was 4580 nM, the GI50 (CAKI-1 renal) was 445 nM and the TGI (CAKI-1 renal) was 4070 nM. It also gave a GI50 (CCRF-CEM leukemia) of 82.9 nM, a TGI (CCRF-CEM leukemia) of 3760 nM and a TGI (COLO 205 colon) of 3160 nM. For the same compound, the GI50 (DU-145 prostate) was 292 nM, the TGI (DU-145 prostate) was 1720 nM and the GI50 (EKVX NSCLC) was 2530 nM. The TGI (EKVX NSCLC) was 12600 nM, the GI50 (HCC-2998 colon) was 474 nM and the TGI (HCC-2998 colon) was 2510 nM. It also gave a GI50 (HCT-116 colon) of 277 nM, a TGI (HCT-116 colon) of 6600 nM and a GI50 (HCT-15 colon) of 2530 nM. The TGI (HCT-15 colon) was 18200 nM, the GI50 (HL-60(TB) leukemia) was 112 nM and the TGI (HL-60(TB) leukemia) was 2360 nM. It also gave a GI50 (HOP-62 NSCLC) of 152 nM, a TGI (HOP-62 NSCLC) of 1370 nM and a TGI (HOP-92 NSCLC) of 7350 nM. For the same compound, the GI50 (HS 578T breast) was 1660 nM, the TGI (HS 578T breast) was 8310 nM and the GI50 (HT29 colon) was 316 nM. The TGI (HT29 colon) was 2090 nM, the GI50 (IGROV1 ovarian) was 645 nM and the TGI (IGROV1 ovarian) was 6250 nM. It also gave a GI50 (K-562 leukemia) of 322 nM, a TGI (K-562 leukemia) of 10900 nM and a GI50 (KM12 colon) of 1320 nM. For the same compound, the TGI (KM12 colon) was 8680 nM, the GI50 (LOX IMVI melanoma) was 178 nM and the TGI (LOX IMVI melanoma) was 1490 nM. The GI50 (M14 melanoma) was 496 nM, the TGI (M14 melanoma) was 4780 nM and the GI50 (MALME-3M melanoma) was 391 nM. The TGI (MALME-3M melanoma) was 3240 nM, the GI50 (MCF7 breast) was 37.9 nM and the TGI (MCF7 breast) was 5200 nM. For the same compound, the GI50 (MDA-MB-231 breast) was 1260 nM, the TGI (MDA-MB-231 breast) was 7740 nM and the GI50 (MDA-MB-435) was 1660 nM. It also gave a TGI (MDA-MB-435) of 8910 nM, a GI50 (MOLT-4 leukemia) of 42.8 nM and a TGI (MOLT-4 leukemia) of 2890 nM. The GI50 (NCI-H226 lung) was 167 nM, the TGI (NCI-H226 lung) was 1400 nM and the GI50 (NCI-H23 lung) was 233 nM. It also gave a TGI (NCI-H23 lung) of 1160 nM, a GI50 (NCI-H460 lung) of 47.2 nM and a TGI (NCI-H460 lung) of 833 nM. For the same compound, the GI50 (NCI-H522 lung) was 256 nM, the TGI (NCI-H522 lung) was 1500 nM and the GI50 (NCI/ADR-RES ovarian) was 45300 nM. It also gave a TGI (NCI/ADR-RES ovarian) greater than 100000 nM, a GI50 (OVCAR-3 ovarian) of 1130 nM and a TGI (OVCAR-3 ovarian) of 7110 nM. It also gave a TGI (OVCAR-4 ovarian) of 7680 nM, a GI50 (OVCAR-5 ovarian) of 512 nM and a TGI (OVCAR-5 ovarian) of 5680 nM. The GI50 (OVCAR-8 ovarian) was 327 nM, the TGI (OVCAR-8 ovarian) was 1950 nM and the GI50 (PC-3 prostate) was 1300 nM. It also gave a TGI (PC-3 prostate) of 9330 nM, a GI50 (RPMI-8226 leukemia) of 255 nM and a TGI (RPMI-8226 leukemia) of 4030 nM. It also gave a TGI (RXF 393 renal) of 3580 nM, a GI50 (SF-268 CNS) of 339 nM and a TGI (SF-268 CNS) of 3620 nM. It also gave a GI50 (SF-295 CNS) of 219 nM, a TGI (SF-295 CNS) of 1270 nM and a GI50 (SF-539 CNS) of 174 nM. It also gave a TGI (SF-539 CNS) of 1480 nM, a GI50 (SK-MEL-2 melanoma) of 2280 nM and a TGI (SK-MEL-2 melanoma) of 4950 nM. The GI50 (SK-MEL-28 melanoma) was 2580 nM, the TGI (SK-MEL-28 melanoma) was 13900 nM and the GI50 (SK-MEL-5 melanoma) was 523 nM. The TGI (SK-MEL-5 melanoma) was 2170 nM, the GI50 (SK-OV-3 ovarian) was 288 nM and the TGI (SK-OV-3 ovarian) was 2600 nM. The GI50 (SN12C renal) was 224 nM, the TGI (SN12C renal) was 1210 nM and the GI50 (SNB-19 CNS) was 232 nM. The TGI (SNB-19 CNS) was 2920 nM, the GI50 (SNB-75 CNS) was 159 nM and the TGI (SNB-75 CNS) was 2080 nM. The GI50 (SR leukemia) was 21.7 nM, the TGI (SR leukemia) was 6080 nM and the TGI (SW-620 colon) was 3650 nM. The GI50 (T-47D breast) was 240 nM, the TGI (T-47D breast) was 4170 nM and the TGI (TK-10 renal) was 3190 nM. For the same compound, the GI50 (U251 CNS) was 144 nM, the TGI (U251 CNS) was 2140 nM and the GI50 (UACC-257 melanoma) was 1340 nM. The TGI (UACC-257 melanoma) was 8990 nM, the GI50 (UACC-62 melanoma) was 248 nM and the TGI (UACC-62 melanoma) was 1790 nM. For the same compound, the GI50 (UO-31 renal) was 2240 nM and the TGI (UO-31 renal) was 19900 nM.
